Experimental data from patent publication US20140057978A1, “NOVEL USE OF BENZOFURANYLSULFONATES” (priority 2011, published 2014).

Assays:
[1] = test system: Schwann cells of embryonic DRG explants; assay: Schwann cell expansion in embryonic DRG explants; assay type: cell-based, rat; conditions: for Schwann cell expansion (numbers of Schwann cells outside the DRG explant core): 22 hours in vitro, versus vehicle
Protocol: (§1) In vitro experiments with a benzofuranylsulfonate to improve axonal growth and Schwann cell expansion in embryonic DRG (Dorsal Root Ganglion) explants of rats.
(§2) Outgrowth studies with Methanesulfonic acid 2-(2,4-dichloro-benzoyl)-3-ureido-benzofuran-6-yl ester or the vehicle were performed on embryonic neural tissue. DRGs of thoracic, lumbar, and sacral levels were prepared from Wistar rat embryos E18-20 and processed in ice cold 0.6% glucose in PBS. Harvested DRGs were freed from attaching nerve fibres, dissected, and transferred onto PDL- and laminin-coated glass coverlips. To avoid cluster formation, a maximum of two DRG explants were transferred onto a single glass coverslip. Following an initial attachment phase, the pre-incubation medium was replaced by fully supplemented growth medium spiked with the test item (Methanesulfonic acid 2-(2,4-dichloro-benzoyl)-3-ureido-benzofuran-6-yl ester groups 2 and 3) or vehicle (DMF, group 1) and incubated at 37° C./10% CO2 for additional 22 hours in vitro. Following 22 hours in vitro, the DRG explants were fluorescently labelled and axonal growth and Schwann cell expansion were quantitatively assessed.
(§3) Group 1: Fully supplemented growth medium with 0.1% vehicle. Group 2: Fully supplemented growth medium with 0.1% vehicle and Methanesulfonic acid 2-(2,4-dichloro-benzoyl)-3-ureido-benzofuran-6-yl ester at a final concentration of 0.1 μM. Group 3: Fully supplemented growth medium with 0.1% vehicle and Methanesulfonic acid 2-(2,4-dichloro-benzoyl)-3-ureido-benzofuran-6-yl ester at a final concentration of 1 μM.
Data are presented as the mean values and standard deviations of the numbers of Schwann cells outside the DRG explant core.

[2] = test system: embryonic DRG (Dorsal Root Ganglion) explants; assay: Axonal growth in embryonic DRG explants; assay type: cell-based, rat; conditions: 22 hours in vitro
Protocol: as §1, §2, §3
Morphometric data are presented as the mean values and standard deviations of the axonal growth area in μm^2.

[3] = test system: severe contusive SCI in Lewis rats; assay: BBB open field locomotor rating scale after severe spinal cord contusion injury; assay type: in vivo; conditions: rat, oral
Protocol: Oral treatment with a benzofuranylsulfonate after severe spinal cord contusion injury in the rat.
Thirteen week-old female Lewis rats (Charles River, Sulzfeld Germany) were housed under a 12:12 h dark/light regime and allowed free access to water and food. After one week of habituation the animals underwent general anesthesia with a mixture of isoflurane and air (induction: 5% isoflurane, maintenance: 2.2% isofluorane). A Th10 laminectomy was performed without rupturing the dura and a severe contusive SCI (25 gcm NYU/MASCIS II impactor) (Gruner, 1992) was induced. After suturing muscle and skin, a subcutaneous (s.c.) injection of 5 ml of Ringers Lactate was given. Bladders were emptied manually 2 times a day until spontaneous voiding returned (usually within 1 week). The lesion severity was verified by the impact velocity and contusion depth of the impactor rod. Animals with an impact velocity error >5% were excluded from further analysis. After injury, individual rats were randomly assigned into a treatment group. The following groups were used: […]
The BBB open field locomotor rating scale: The BBB locomotor rating scale was used to assess general locomotor performance (Basso et al., 1995). The score was assessed before injury and at 1, 3, 5, 7, 14, 21, 35, 42, 49, 56 and 63 days post operation (dpo) by 2 blinded observers.

SMILES: CS(=O)(=O)Oc1ccc2c(NC(N)=O)c(C(=O)c3ccc(Cl)cc3Cl)oc2c1 [methanesulfonic acid 2-(2,4-dichloro-benzoyl)-3-ureido-benzofuran-6-yl ester]
- Schwann cell expansion (numbers of Schwann cells outside the DRG explant core) ([1]; 0.1 μM): significant increase
- Schwann cell expansion (numbers of Schwann cells outside the DRG explant core) ([1]; 1 μM): significant increase
- increase of Schwann cell numbers (fold) ([1]; treated cultures versus vehicle-treated cultures, highest at 0.1 μM): nearly fivefold
- growth area of outgrowing axons, as compared to vehicle-treated cultures ([2]; 0.1 μM): significant increase
- growth area of outgrowing axons, as compared to vehicle-treated cultures ([2]; 1 μM): significant increase
- elevation of axonal growth areas (fold) ([2]; 1 μM, versus vehicle): nearly five fold
- BBB score at steady state ([3]; 10 mg in vehicle, vehicle animals 7.8): 8.8
- BBB performance compared to vehicle controls at the end of the experiment ([3]; 10 mg, DPO 56, Students T-Test p=0.01): significantly better
